These molecules were tested against T1, CEP128_C915 (Homo sapiens, UniProt Q6ZU80) (assay: IA-DTB cysteine engagement). Settings: 22Rv1 cells, 20 μM probe, 1 h, relative to DMSO.
T1 construct: endogenous in cells; host or cells: 22Rv1
T1 sequence (Q6ZU80 1-1094): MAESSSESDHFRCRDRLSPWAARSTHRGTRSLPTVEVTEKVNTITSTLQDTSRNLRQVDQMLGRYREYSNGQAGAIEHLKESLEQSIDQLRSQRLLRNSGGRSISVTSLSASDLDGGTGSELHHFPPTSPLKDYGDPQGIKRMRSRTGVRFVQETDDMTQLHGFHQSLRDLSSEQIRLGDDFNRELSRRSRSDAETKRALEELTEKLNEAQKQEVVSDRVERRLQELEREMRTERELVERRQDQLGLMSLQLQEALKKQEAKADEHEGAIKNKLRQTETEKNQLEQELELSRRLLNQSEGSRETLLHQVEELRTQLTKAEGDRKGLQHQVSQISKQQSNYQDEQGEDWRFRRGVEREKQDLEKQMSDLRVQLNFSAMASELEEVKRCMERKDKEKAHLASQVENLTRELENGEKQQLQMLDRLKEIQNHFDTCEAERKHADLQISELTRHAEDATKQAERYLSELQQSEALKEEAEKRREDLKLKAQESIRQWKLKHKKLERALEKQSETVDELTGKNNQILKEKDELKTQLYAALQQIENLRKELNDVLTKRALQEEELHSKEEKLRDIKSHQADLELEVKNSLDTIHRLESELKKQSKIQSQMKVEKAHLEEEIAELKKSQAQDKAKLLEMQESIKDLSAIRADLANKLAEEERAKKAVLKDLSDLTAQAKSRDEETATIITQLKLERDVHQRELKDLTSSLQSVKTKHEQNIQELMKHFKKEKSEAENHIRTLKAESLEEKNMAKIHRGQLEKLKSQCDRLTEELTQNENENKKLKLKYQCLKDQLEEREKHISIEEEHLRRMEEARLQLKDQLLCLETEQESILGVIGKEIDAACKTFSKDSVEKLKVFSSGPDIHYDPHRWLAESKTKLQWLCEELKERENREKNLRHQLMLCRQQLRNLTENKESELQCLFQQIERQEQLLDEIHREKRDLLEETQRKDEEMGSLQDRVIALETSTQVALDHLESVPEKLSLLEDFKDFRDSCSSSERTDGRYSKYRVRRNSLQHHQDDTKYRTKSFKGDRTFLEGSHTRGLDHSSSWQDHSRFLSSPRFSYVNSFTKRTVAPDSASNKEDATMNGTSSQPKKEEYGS
Assay type: binding
In short: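 Read-out is TMT-based cysteine engagement, expressed as each reporter ion intensity divided by the average of the DMSO channels. Before that, probe-treated cell lysates were capped with IA-DTB, digested, enriched on streptavidin and TMT-tagged. PSMs with DMSO summed intensity <10,000 or DMSO CV >0.5 were excluded.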
With `C=CC(=O)N1C[C@@H](c2ccc(Br)cc2)[C@H]1C(=O)Nc1cccc2cccnc12` [MY-1A, (2S,3R)-1-acryloyl-3-(4-bromophenyl)-N-(quinolin-8-yl)azetidine-2-carboxamide] the “% engagement CEP128_C915” value was −13%. In the case of `C=CC(=O)N1C[C@H](c2ccc(Br)cc2)[C@@H]1C(=O)Nc1cccc2cccnc12` [MY-1B, (2R,3S)-1-acryloyl-3-(4-bromophenyl)-N-(quinolin-8-yl)azetidine-2-carboxamide], the “% engagement CEP128_C915” value is reported as 67.5%. For `C=CC(=O)N1C[C@H](c2ccc(Br)cc2)[C@H]1C(=O)Nc1cccc2cccnc12` [MY-3A, (2S,3S)-1-acryloyl-3-(4-bromophenyl)-N-(quinolin-8-yl)azetidine-2-carboxamide], the “% engagement CEP128_C915” value was 7%. `C=CC(=O)N1C[C@H](c2ccc(Br)cc2)[C@H]1C(=O)Nc1cccc2cccnc12` [MY-3B, (2S,3S)-1-acryloyl-3-(4-bromophenyl)-N-(quinolin-8-yl)azetidine-2-carboxamide] was tested, and the “% engagement CEP128_C915” value was 25%.
